Patent US20170190671A1, “BIS(ARYL)CATECHOL DERIVATIVES AS HERBICIDES” (E I DU PONT DE NEMOURS AND COMPANY, priority 2014, published 2017)

Key:
[1] = test system: Italian ryegrass (Lolium multiflorum); assay: Test A postemergence; format: in vivo; conditions: Lolium multiflorum, post-emergence, 240 h, 0 to 100 scale, read-out: Plant response rating, Ryegrass, Italian; for pest or weed control at 31 g/ha: 31 g ai/ha; for pest or weed control at 125 g/ha: 125 g ai/ha
Summary of the method: (§1)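 Injury scores run from 0, no effect, to 100, complete control, judged by eye against untreated plants roughly 10 days after treatment. Chemicals carried a surfactant in a non-phytotoxic solvent and went onto loam–sand soil preemergence or onto one- to two-leaf seedlings postemergence.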

[2] = test system: pigweed (Amaranthus retroflexus); assay: Test A postemergence; format: in vivo; conditions: Amaranthus retroflexus, post-emergence, 240 h, 0 to 100 scale, read-out: Plant response rating, Pigweed; for pest or weed control at 31 g/ha: 31 g ai/ha; for pest or weed control at 125 g/ha: 125 g ai/ha
Summary of the method: as §1

kochia (Kochia scoparia) [3] = assay: Test A postemergence; format: in vivo; conditions: Bassia scoparia, post-emergence, 240 h, 0 to 100 scale, read-out: Plant response rating, Kochia; for pest or weed control at 31 g/ha: 31 g ai/ha; for pest or weed control at 125 g/ha: 125 g ai/ha
Summary of the method: as §1

corn (Zea mays) = assay: Test A postemergence; format: in vivo; conditions: Zea mays, post-emergence, 240 h, 0 to 100 scale; for Corn plant response rating (crop injury, 0 = no effect, 100 = complete kill) at 31 g/ha: 31 g ai/ha; for Corn plant response rating (crop injury, 0 = no effect, 100 = complete kill) at 125 g/ha: 125 g ai/ha
Summary of the method: as §1

[4] = test system: ragweed (common ragweed, Ambrosia elatior); assay: Test A postemergence; format: in vivo; conditions: Ambrosia artemisiifolia, post-emergence, 240 h, 0 to 100 scale, read-out: Plant response rating, Ragweed; for pest or weed control at 31 g/ha: 31 g ai/ha; for pest or weed control at 125 g/ha: 125 g ai/ha
Summary of the method: as §1

[5] = test system: galium (catchweed bedstraw, Galium aparine); assay: Test A postemergence; format: in vivo; conditions: Galium, post-emergence, 240 h, 0 to 100 scale, read-out: Plant response rating, Galium; for pest or weed control at 31 g/ha: 31 g ai/ha; for pest or weed control at 125 g/ha: 125 g ai/ha
Summary of the method: as §1

[6] = test system: wheat (Triticum aestivum); assay: Test A postemergence; format: in vivo; conditions: Triticum aestivum, post-emergence, 240 h, 0 to 100 scale, read-out: Plant response rating, Wheat; for plant injury at 31 g/ha: 31 g ai/ha; for plant injury at 125 g/ha: 125 g ai/ha
Summary of the method: as §1

[7] = test system: blackgrass (Alopecurus myosuroides); assay: Test A postemergence; format: in vivo; conditions: Alopecurus myosuroides, post-emergence, 240 h, 0 to 100 scale, read-out: Plant response rating, Blackgrass; for pest or weed control at 31 g/ha: 31 g ai/ha; for pest or weed control at 125 g/ha: 125 g ai/ha
Summary of the method: as §1

[8] = test system: barnyardgrass (Echinochloa crus-galli); assay: Test A postemergence; format: in vivo; conditions: Echinochloa crus-galli, post-emergence, 240 h, 0 to 100 scale, read-out: Plant response rating, Barnyardgrass; for pest or weed control at 31 g/ha: 31 g ai/ha; for pest or weed control at 125 g/ha: 125 g ai/ha
Summary of the method: as §1

[9] = test system: giant foxtail (Setaria faberii); assay: Test A postemergence; format: in vivo; conditions: Setaria faberi, post-emergence, 240 h, 0 to 100 scale, read-out: Plant response rating, Foxtail, Giant; for pest or weed control at 31 g/ha: 31 g ai/ha; for pest or weed control at 125 g/ha: 125 g ai/ha
Summary of the method: as §1

[10] = test system: Italian ryegrass (Lolium multiflorum); assay: Test A preemergence; format: in vivo; conditions: Lolium multiflorum, pre-emergence, 240 h, 0 to 100 scale (0 no effect, 100 complete control), read-out: Ryegrass, Italian plant response rating; for pest or weed control at 31 g/ha: 31 g ai/ha; for pest or weed control at 125 g/ha: 125 g ai/ha
Summary of the method: as §1

[11] = test system: pigweed (Amaranthus retroflexus); assay: Test A preemergence; format: in vivo; conditions: Amaranthus retroflexus, pre-emergence, 240 h, 0 to 100 scale (0 no effect, 100 complete control), read-out: Pigweed plant response rating; for pest or weed control at 31 g/ha: 31 g ai/ha; for pest or weed control at 125 g/ha: 125 g ai/ha
Summary of the method: as §1

kochia (Kochia scoparia) [12] = assay: Test A preemergence; format: in vivo; conditions: Bassia scoparia, pre-emergence, 240 h, 0 to 100 scale (0 no effect, 100 complete control), read-out: Kochia plant response rating; for pest or weed control at 31 g/ha: 31 g ai/ha; for pest or weed control at 125 g/ha: 125 g ai/ha
Summary of the method: as §1

[13] = test system: ragweed (common ragweed, Ambrosia elatior); assay: Test A preemergence; format: in vivo; conditions: Ambrosia artemisiifolia, pre-emergence, 240 h, 0 to 100 scale (0 no effect, 100 complete control), read-out: Ragweed plant response rating; for pest or weed control at 31 g/ha: 31 g ai/ha; for pest or weed control at 125 g/ha: 125 g ai/ha
Summary of the method: as §1

[14] = test system: barnyardgrass (Echinochloa crus-galli); assay: Test A preemergence; format: in vivo; conditions: Echinochloa crus-galli, pre-emergence, 240 h, 0 to 100 scale (0 no effect, 100 complete control), read-out: Barnyardgrass plant response rating; for pest or weed control at 31 g/ha: 31 g ai/ha; for pest or weed control at 125 g/ha: 125 g ai/ha
Summary of the method: as §1

[15] = test system: giant foxtail (Setaria faberii); assay: Test A preemergence; format: in vivo; conditions: Setaria faberi, pre-emergence, 240 h, 0 to 100 scale (0 no effect, 100 complete control), read-out: Foxtail, Giant plant response rating; for pest or weed control at 31 g/ha: 31 g ai/ha; for pest or weed control at 125 g/ha: 125 g ai/ha
Summary of the method: as §1

[16] = test system: Italian ryegrass (Lolium multiflorum); assay: Test C postemergence; format: in vivo; conditions: Lolium multiflorum, post-emergence, 336 h, Postemergence, scale 0 to 100, read-out: Plant response rating, Ryegrass, Italian; for pest or weed control at 31 g/ha: 31 g ai/ha; for pest or weed control at 62 g/ha: 62 g ai/ha; for pest or weed control at 125 g/ha: 125 g ai/ha
Summary of the method: (§2)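 Seeded loam-sand soil (preemergence) or young potted plants of 2-18 cm (postemergence) received test chemical formulated with surfactant in a non-phytotoxic solvent. Pots were kept in the greenhouse for 13-15 days before a visual 0-100 control rating relative to controls.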

wild oat (Avena fatua) = assay: Test C postemergence; format: in vivo; conditions: Avena fatua, post-emergence, Postemergence, scale 0 to 100, read-out: Plant response rating, Oat, Wild; for pest or weed control at 31 g/ha: 31 g ai/ha; for pest or weed control at 62 g/ha: 62 g ai/ha; for pest or weed control at 125 g/ha: 125 g ai/ha
Summary of the method: as §2

rice (Oryza sativa) = assay: Test B flooded paddy; format: in vivo; conditions: Oryza sativa, 336 h; 250 g ai/ha, Flood, 13 to 15 days, scale 0 (no effect) to 100 (complete control); read-out: Plant response rating, Rice
Summary of the method: (§3)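 Under a constant 3 cm flood, test compounds went directly into the paddy water. Following 13 to 15 days of greenhouse growth, treated species and controls were compared by eye.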

[17] = test system: ducksalad (Heteranthera limosa); assay: Test B flooded paddy; format: in vivo; conditions: Heteranthera limosa, 336 h; 250 g ai/ha, Flood, 13 to 15 days, scale 0 (no effect) to 100 (complete control); read-out: Plant response rating, Ducksalad
Summary of the method: as §3

[18] = test system: barnyardgrass (Echinochloa crus-galli); assay: Test B flooded paddy; format: in vivo; conditions: Echinochloa crus-galli, 336 h; 250 g ai/ha, Flood, 13 to 15 days, scale 0 (no effect) to 100 (complete control); read-out: Plant response rating, Barnyardgrass
Summary of the method: as §3

[19] = test system: sedge, umbrella (small-flower umbrella sedge, Cyperus difformis); assay: Test B flooded paddy; format: in vivo; conditions: Cyperus difformis, 336 h; 250 g ai/ha, Flood, 13 to 15 days, scale 0 (no effect) to 100 (complete control); read-out: Plant response rating, Sedge, Umbrella
Summary of the method: as §3

## N#Cc1cccc(Oc2ncc(Cl)cn2)c1Oc1ccc(Cl)cc1 [Compound 36]
[1]
  pest or weed control at 31 g/ha: 0%
  pest or weed control at 125 g/ha: 10%
[2]
  pest or weed control at 31 g/ha: 90%
  pest or weed control at 125 g/ha: 100%
Kochia (Kochia scoparia) [3]
  pest or weed control at 31 g/ha: 80%
  pest or weed control at 125 g/ha: 100%
Corn (Zea mays)
  Corn plant response rating (crop injury, 0 = no effect, 100 = complete kill) at 31 g/ha: 20%
  Corn plant response rating (crop injury, 0 = no effect, 100 = complete kill) at 125 g/ha: 20%
[4]
  pest or weed control at 31 g/ha: 10%
  pest or weed control at 125 g/ha: 20%
[5]
  pest or weed control at 31 g/ha: 90%
  pest or weed control at 125 g/ha: 100%
[6]
  plant injury at 31 g/ha: 0%
  plant injury at 125 g/ha: 10%
[7]
  pest or weed control at 31 g/ha: 20%
  pest or weed control at 125 g/ha: 40%
[8]
  pest or weed control at 31 g/ha: 10%
  pest or weed control at 125 g/ha: 30%
[9]
  pest or weed control at 31 g/ha: 20%
  pest or weed control at 125 g/ha: 50%
other
  melting point: 172 to 175 °C
[10]
  pest or weed control at 31 g/ha: 0%
  pest or weed control at 125 g/ha: 20%
[11]
  pest or weed control at 31 g/ha: 60%
  pest or weed control at 125 g/ha: 100%
Kochia (Kochia scoparia) [12]
  pest or weed control at 31 g/ha: 10%
  pest or weed control at 125 g/ha: 50%
[13]
  pest or weed control at 31 g/ha: 0%
  pest or weed control at 125 g/ha: 0%
[14]
  pest or weed control at 31 g/ha: 0%
  pest or weed control at 125 g/ha: 40%
[15]
  pest or weed control at 31 g/ha: 70%
  pest or weed control at 125 g/ha: 90%
[16]
  pest or weed control at 31 g/ha: 5%
  pest or weed control at 62 g/ha: 10%
  pest or weed control at 125 g/ha: 30%
Wild oat (Avena fatua)
  pest or weed control at 31 g/ha: 30%
  pest or weed control at 62 g/ha: 20%
  pest or weed control at 125 g/ha: 35%
Rice (Oryza sativa)
  plant injury at 250 g/ha: 0%
[17]
  pest or weed control at 250 g/ha: 65%
[18]
  pest or weed control at 250 g/ha: 0%
[19]
  pest or weed control at 250 g/ha: 95%

## N#Cc1cccc(Oc2ncc(Cl)cn2)c1Oc1ncc(C(F)(F)F)cn1 [Compound 38, 3-[(5-chloro-2-pyrimidinyl)oxy]-2-[[5-(trifluoromethyl)-2-pyrimidinyl]oxy]-benzonitrile]
[1]
  pest or weed control at 31 g/ha: 50%
  pest or weed control at 125 g/ha: 90%
[2]
  pest or weed control at 31 g/ha: 100%
  pest or weed control at 125 g/ha: 100%
Kochia (Kochia scoparia) [3]
  pest or weed control at 31 g/ha: 100%
  pest or weed control at 125 g/ha: 100%
Corn (Zea mays)
  Corn plant response rating (crop injury, 0 = no effect, 100 = complete kill) at 31 g/ha: 40%
  Corn plant response rating (crop injury, 0 = no effect, 100 = complete kill) at 125 g/ha: 90%
[4]
  pest or weed control at 31 g/ha: 40%
  pest or weed control at 125 g/ha: 70%
[5]
  pest or weed control at 31 g/ha: 80%
  pest or weed control at 125 g/ha: 100%
[6]
  plant injury at 31 g/ha: 20%
  plant injury at 125 g/ha: 90%
[7]
  pest or weed control at 31 g/ha: 40%
  pest or weed control at 125 g/ha: 90%
[8]
  pest or weed control at 31 g/ha: 90%
  pest or weed control at 125 g/ha: 90%
[9]
  pest or weed control at 31 g/ha: 100%
  pest or weed control at 125 g/ha: 100%
other
  melting point: 101 to 103 °C
[10]
  pest or weed control at 31 g/ha: 10%
  pest or weed control at 125 g/ha: 90%
[11]
  pest or weed control at 31 g/ha: 100%
  pest or weed control at 125 g/ha: 100%
Kochia (Kochia scoparia) [12]
  pest or weed control at 31 g/ha: 90%
  pest or weed control at 125 g/ha: 100%
[13]
  pest or weed control at 31 g/ha: 30%
  pest or weed control at 125 g/ha: 90%
[14]
  pest or weed control at 31 g/ha: 80%
  pest or weed control at 125 g/ha: 100%
[15]
  pest or weed control at 31 g/ha: 100%
  pest or weed control at 125 g/ha: 100%
[16]
  pest or weed control at 31 g/ha: 5%
  pest or weed control at 62 g/ha: 5%
  pest or weed control at 125 g/ha: 5%
Wild oat (Avena fatua)
  pest or weed control at 31 g/ha: 5%
  pest or weed control at 62 g/ha: 10%
  pest or weed control at 125 g/ha: 10%
Rice (Oryza sativa)
  plant injury at 250 g/ha: 45%
[17]
  pest or weed control at 250 g/ha: 100%
[18]
  pest or weed control at 250 g/ha: 85%
[19]
  pest or weed control at 250 g/ha: 100%
